Where a name gives a salt, the structure may show the parent alone.
Assays:
5-HT7 receptor = biological target: T1, 5-HT7 receptor (Homo sapiens, UniProt P34969); experiment: 5-HT7 receptor binding (3H-LSD, CHO cell culture); conditions: ligand 3H-LSD, non-specific binding clozapine (25 μM), read-out: Inhibition of 5-HT7 receptor binding, IC50
T1 construct: expressed in transfected cells; host or cells: CHO cell culture
Procedure: (§1) Human cloned receptors or frontal cortex preparations of male Wistar rats weighing 120-200 g were used for the experiments. The protein contents of membrane preparations were determined according to the method of Lowry (1951).
(§2) In the course of 5-HT7 receptor binding studies the applied tissue was CHO cell culture, the ligand was ^3H-LSD, and for the non-specific binding clozapine (25 μM) was used as ligand. In the serotonin uptake experiment cortex was used as tissue. As ligand tritiated serotonin, as non-specifically binding ligand fluoxetine (100 μM) was applied.
(§3) IC50 is the concentration where the difference between whole binding and non-specific binding in the presence of 10 μM serotonin creatinine sulfate is 50%. The compounds with an IC50 value smaller than 100 nmol were considered effective in this test.

5-HT uptake = biological target: T2, 5-HT uptake (Rattus norvegicus, UniProt P31652); experiment: Serotonin uptake experiment (tritiated serotonin, cortex); format: biochemical; conditions: cortex tissue; ligand tritiated serotonin; non-specific ligand fluoxetine (100 μM); read-out: Inhibition of 5-HT uptake, IC50
T2 construct: In the serotonin uptake experiment cortex was used as tissue; from tissue; host or cells: frontal cortex of male Wistar rats
Procedure: as §1, §2, §3

T1 sequence (P34969 whole entry): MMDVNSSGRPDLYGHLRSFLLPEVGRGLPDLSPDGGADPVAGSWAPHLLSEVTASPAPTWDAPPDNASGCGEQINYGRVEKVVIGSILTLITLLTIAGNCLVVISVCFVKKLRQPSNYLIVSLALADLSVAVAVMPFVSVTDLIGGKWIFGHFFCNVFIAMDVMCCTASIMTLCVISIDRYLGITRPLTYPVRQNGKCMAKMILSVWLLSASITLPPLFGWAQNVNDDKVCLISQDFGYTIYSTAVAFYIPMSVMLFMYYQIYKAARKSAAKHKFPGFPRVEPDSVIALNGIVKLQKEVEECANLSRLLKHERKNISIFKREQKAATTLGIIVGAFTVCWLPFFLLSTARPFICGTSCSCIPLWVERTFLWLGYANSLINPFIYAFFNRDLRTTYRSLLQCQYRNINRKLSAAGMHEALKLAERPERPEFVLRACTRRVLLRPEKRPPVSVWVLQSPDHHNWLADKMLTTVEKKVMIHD
T2 sequence (P31652 whole entry): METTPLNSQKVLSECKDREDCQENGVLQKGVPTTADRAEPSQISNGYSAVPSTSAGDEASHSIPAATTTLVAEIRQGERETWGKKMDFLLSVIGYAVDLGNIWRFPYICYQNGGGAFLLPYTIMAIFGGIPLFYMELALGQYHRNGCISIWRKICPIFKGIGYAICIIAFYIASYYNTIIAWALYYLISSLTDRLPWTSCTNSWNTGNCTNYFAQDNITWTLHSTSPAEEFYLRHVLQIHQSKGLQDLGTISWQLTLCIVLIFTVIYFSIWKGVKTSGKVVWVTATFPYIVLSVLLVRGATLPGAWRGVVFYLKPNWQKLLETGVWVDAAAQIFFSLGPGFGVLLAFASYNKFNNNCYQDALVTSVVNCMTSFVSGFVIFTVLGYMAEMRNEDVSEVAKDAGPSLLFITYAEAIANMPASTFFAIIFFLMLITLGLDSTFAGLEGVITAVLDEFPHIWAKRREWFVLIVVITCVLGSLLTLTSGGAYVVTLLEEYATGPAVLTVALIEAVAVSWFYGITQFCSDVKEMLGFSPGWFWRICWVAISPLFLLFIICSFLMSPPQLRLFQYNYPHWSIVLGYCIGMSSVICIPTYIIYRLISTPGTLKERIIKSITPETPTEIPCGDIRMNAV

SMILES	melting point [°C]	IC50 (5-HT7 receptor) [µM]	IC50 (5-HT uptake) [µM]
O=C1Nc2ccccc2C1CCCCN1CC=C(c2ccccc2)CC1 (centres unmarked)	121 to 126		
O=C1Nc2ccccc2C1CCCCN1CCc2sc(Cl)cc2C1 (centres unmarked) (as salt: hydrochloride) [Example 8, 3-[4-(2-Chloro-6,7-dihydro-4H-thieno[3,2-c]-pyridin-5-yl)-butyl]-1,3-dihydro-2H-indol-2-one monohydrochloride]	103 to 106		
O=C1Nc2cc(F)ccc2C1CCCCN1CCc2sc(Cl)cc2C1 (centres unmarked) (as salt: hydrochloride) [Example 10, 3-[4-(2-Chloro-6,7-dihydro-4H-thieno[3,2-c]-pyridin-5-yl)-butyl]-6-fluoro-1,3-dihydro-2H-indol-2-one monohydrochloride]	214 to 216		
O=C1Nc2ccc(F)cc2C1CCCCN1CCc2sc(Cl)cc2C1 (centres unmarked) (as salt: hydrochloride) [Example 11, 3-[4-(2-Chloro-6,7-dihydro-4H-thieno[3,2-c]-pyridin-5-yl)-butyl]-5-fluoro-1,3-dihydro-2H-indol-2-one monohydrochloride]	161 to 163		
O=C1Nc2cc(F)ccc2C1CCCCN1CC=C(c2cccc(C(F)(F)F)c2)CC1 (centres unmarked) (as salt: hydrochloride) [Example 12, 6-Fluoro-3-{4-[4-(3-trifluoromethyl-phenyl)-1,2,3,6-tetrahydropyridin-1-yl]-butyl}-1,3-dihydro-2H-indol-2-one monohydrochloride]	203 to 205		
O=C1Nc2ccc(F)cc2C1CCCCN1CC=C(c2cccc(C(F)(F)F)c2)CC1 (centres unmarked) (as salt: hydrochloride) [Example 14, 5-Fluoro-3-{4-[4-(3-trifluoromethyl-phenyl)-1,2,3,6-tetrahydropyridin-1-yl]-butyl}-1,3-dihydro-2H-indol-2-one monohydrochloride]	201 to 204		
O=C1Nc2ccccc2C1CCCCN1CC=C(c2cccc(C(F)(F)F)c2)CC1 (centres unmarked) (as salt: oxalate) [Example 5, 3-{4-[4-(3-Trifluoromethyl-phenyl)-1,2,3,6-tetrahydropyridin-1-yl]-butyl}-1,3-dihydro-2H-indol-2-one monooxalate]	159 to 161		
O=C1Nc2ccccc2C1CCCCN1CC=C(c2cccc(C(F)(F)F)c2)CC1 (centres unmarked) [Example 5, 3-{4-[4-(3-Trifluoromethyl-phenyl)-1,2,3,6-tetrahydropyridin-1-yl]-butyl}-1,3-dihydro-2H-indol-2-one monooxalate]		< 0.1	
O=C1Nc2ccccc2C1CCCCN1CCc2sc(Cl)cc2C1 (centres unmarked) [Example 8, 3-[4-(2-Chloro-6,7-dihydro-4H-thieno[3,2-c]-pyridin-5-yl)-butyl]-1,3-dihydro-2H-indol-2-one monohydrochloride]		< 0.1	
O=C1Nc2cc(F)ccc2C1CCCCN1CCc2sc(Cl)cc2C1 (centres unmarked) [Example 10, 3-[4-(2-Chloro-6,7-dihydro-4H-thieno[3,2-c]-pyridin-5-yl)-butyl]-6-fluoro-1,3-dihydro-2H-indol-2-one monohydrochloride]		< 0.1	
O=C1Nc2ccc(F)cc2C1CCCCN1CCc2sc(Cl)cc2C1 (centres unmarked) [Example 11, 3-[4-(2-Chloro-6,7-dihydro-4H-thieno[3,2-c]-pyridin-5-yl)-butyl]-5-fluoro-1,3-dihydro-2H-indol-2-one monohydrochloride]		< 0.1	
O=C1Nc2cc(F)ccc2C1CCCCN1CC=C(c2cccc(C(F)(F)F)c2)CC1 (centres unmarked) [Example 12, 6-Fluoro-3-{4-[4-(3-trifluoromethyl-phenyl)-1,2,3,6-tetrahydropyridin-1-yl]-butyl}-1,3-dihydro-2H-indol-2-one monohydrochloride]		< 0.1	
O=C1Nc2ccccc2C1CCCCN1CC=C(c2ccc(Cl)cc2)CC1 (centres unmarked) [Example 13, 3-{4-[4-(4-Chlorophenyl)-1,2,3,6-tetrahydro-pyridin-1-yl]-butyl}-1,3-dihydro-2H-indol-2-one]	122 to 124	< 0.1	< 0.1
O=C1Nc2ccc(F)cc2C1CCCCN1CC=C(c2cccc(C(F)(F)F)c2)CC1 (centres unmarked) [Example 14, 5-Fluoro-3-{4-[4-(3-trifluoromethyl-phenyl)-1,2,3,6-tetrahydropyridin-1-yl]-butyl}-1,3-dihydro-2H-indol-2-one monohydrochloride]		< 0.1	< 0.1

Continued, in another order:

melting point [°C]	IC50 (5-HT7 receptor) [µM]	SMILES	IC50 (5-HT uptake) [µM]
192 to 194		O=C1Nc2ccc(F)cc2C1CCCCN1CCc2sccc2C1 (centres unmarked) (as salt: hydrochloride) [Example 7, 3-[4-(6,7-Dihydro-4H-thieno[3,2-c]pyridin-5-yl)-butyl]-5-fluoro-1,3-dihydro-2H-indol-2-one monohydrochloride]	
194 to 197		O=C1Nc2cc(F)ccc2C1CCCCN1CCc2sccc2C1 (centres unmarked) (as salt: hydrochloride) [Example 9, 3-[4-(6,7-Dihydro-4H-thieno[3,2-c]pyridin-5-yl)-butyl]-6-fluoro-1,3-dihydro-2H-indol-2-one mono-hydrochloride]	
168 to 170		O=C1Nc2ccccc2C1CCCCN1CCc2sccc2C1 (centres unmarked) (as salt: oxalate) [Example 6, 3-[4-(6,7-Dihydro-4H-thieno[3,2-c]pyridin-5-yl)-butyl]-1,3-dihydro-2H-indol-2-one monooxalate]	
	< 0.1	O=C1Nc2ccccc2C1CCCCN1CCc2sccc2C1 (centres unmarked) [Example 6, 3-[4-(6,7-Dihydro-4H-thieno[3,2-c]pyridin-5-yl)-butyl]-1,3-dihydro-2H-indol-2-one monooxalate]	
	< 0.1	O=C1Nc2ccc(F)cc2C1CCCCN1CCc2sccc2C1 (centres unmarked) [Example 7, 3-[4-(6,7-Dihydro-4H-thieno[3,2-c]pyridin-5-yl)-butyl]-5-fluoro-1,3-dihydro-2H-indol-2-one monohydrochloride]	
	< 0.1	O=C1Nc2cc(F)ccc2C1CCCCN1CCc2sccc2C1 (centres unmarked) [Example 9, 3-[4-(6,7-Dihydro-4H-thieno[3,2-c]pyridin-5-yl)-butyl]-6-fluoro-1,3-dihydro-2H-indol-2-one mono-hydrochloride]	
